Source: EPA's ToxValDB 9.5
Several values for one entry are separate records, joined by “and”; a condition that tells them apart may be missing. Equal values may be shown once.

How the values were obtained:
Rattus norvegicus [1] = conditions: oral; for LOAEL / NOAEL: Crl: CD BR
Oryctolagus sp. = conditions: duration: 14 days, oral, gavage, New Zealand
Rattus norvegicus [2] = conditions: for LEL: uterotrophic, Active
Mus musculus [3] = conditions: uterotrophic, Active
Mus musculus [4] = conditions: repeat dose other; oral
Rattus norvegicus [5] = conditions: oral, diet, M/F, Wistar
[6] = developmental, duration: 11 days, gavage, M/F, generation: F1, F1: Developmental: Uterus: Dead Fetuses + F1: Developmental: Uterus: Fetuses, Live + F1: Developmental: Whole Body: Body Weight, Fetal + F1…
[7] = developmental, duration: 11 days, gavage, M/F, Crl:CD(SD) BR, generation: F1, F1: Whole Body: Body Weight, Fetal
[8] = reproduction developmental, duration: 11 days, gavage, F, generation: P0, P0: Developmental: Uterus: Implantation + P0: Developmental: Uterus: Resorptions, Early + P0: Developmental: Uterus: Resorptions, Late + P0…
[9] = developmental, M/F, generation: F1, F1: Developmental: Uterus: Dead Fetuses + F1: Developmental: Uterus: Fetuses, Live + F1: Developmental: Whole Body: Body Weight, Fetal + F1…
[10] = reproduction developmental, F, generation: P0, P0: Developmental: Uterus: Abortions + P0: Developmental: Uterus: Implantation + P0: Developmental: Uterus: Resorptions, Early + P0: …
[11] = reproduction developmental, F, generation: P0, P0: Uterus: Abortions
[12] = reproduction developmental, F, generation: P0, P0: Whole Body: Maternal Body Weight Change
[13] = duration: 7 days, injection, subcutaneous

CCN(CCO)S(=O)(=O)C(F)(F)C(F)(F)C(F)(F)C(F)(F)C(F)(F)C(F)(F)C(F)(F)C(F)(F)F [N-Ethyl-N-(2-hydroxyethyl)perfluorooctane sulfonamide]
LOAEL (Rattus norvegicus [1]; [6]): 10 mg/kg-day
NOAEL (Rattus norvegicus [1]; [6]): 5 mg/kg-day
NEL (Rattus norvegicus [1]; developmental, duration: 11 days, gavage, M/F, Crl:CD(SD) BR, generation: F1, F1: Uterus: Fetuses, Dead + F1: Uterus: Fetuses, Live + F1: Whole Body: Fetal Alterations Count, External Malformations + F1: Whole Body: …): 20 mg/kg-day
LEL (Rattus norvegicus [1]; [7]): 10 mg/kg-day
NEL (Rattus norvegicus [1]; [7]): 5 mg/kg-day
LOAEL (Rattus norvegicus [1]; [8]): 10 mg/kg-day
NOAEL (Rattus norvegicus [1]; [8]): 5 mg/kg-day
NOAEL (Rattus norvegicus [1]; reproduction developmental, duration: 11 days, gavage, F, generation: P0, P0: Reproductive: Ovary: Corpora Lutea): 20 mg/kg-day
NEL (Rattus norvegicus [1]; reproduction developmental, duration: 11 days, gavage, F, Crl:CD(SD) BR, generation: P0, P0: Ovary: Corpora Lutea + P0: Uterus: Implantation + P0: Uterus: Resorptions, Early + P0: Uterus: Resorptions, Late + P0: Whole Body: …): 20 mg/kg-day
NEL (Rattus norvegicus [1]; short-term, duration: 3 weeks, F, Sprague-Dawley, Kidney: Kidney Weight, Absolute + Kidney: Kidney Weight, Relative + Liver: Acyl-CoA Oxidase Activity, Liver + Liver: Catalase (CAT) Activity…): 5 mg/kg-day
LEL (Rattus norvegicus [1]; short-term, duration: 3 weeks, F, Sprague-Dawley, Liver: Copper Zinc Superoxide Dismutase (CuZnSOD) Activity, Lver + Liver: Liver Weight, Relative + Liver: Manganese Superoxide Dismutase (…): 5 mg/kg-day
LOAEL (Oryctolagus sp.; [9]): 2.5 mg/kg-day
NOAEL (Oryctolagus sp.; [9]): 1 mg/kg-day
NEL (Oryctolagus sp.; developmental, M/F, generation: F1, F1: Uterus: Fetuses, Dead + F1: Uterus: Fetuses, Live + F1: Whole Body: Body Weight, Fetal + F1: Whole Body: Fetal Alterations Count, …): 3.75 mg/kg-day
LOAEL (Oryctolagus sp.; [10]): 2.5 mg/kg-day
NOAEL (Oryctolagus sp.; [10]): 1 mg/kg-day
NEL (Oryctolagus sp.; reproduction developmental, F, generation: P0, P0: Ovary: Corpora Lutea + P0: Uterus: Implantation + P0: Uterus: Resorptions, Early + P0: Uterus: Resorptions, Late + P0: Whole Body: …): 3.75 mg/kg-day
NOAEL (Oryctolagus sp.; reproduction developmental, F, generation: P0, P0: Reproductive: Ovary: Corpora Lutea): 3.75 mg/kg-day
LEL (Oryctolagus sp.; [11]): 3.75 mg/kg-day
NEL (Oryctolagus sp.; [11]): 2.5 mg/kg-day
LEL (Oryctolagus sp.; [12]): 2.5 mg/kg-day
NEL (Oryctolagus sp.; [12]): 1 mg/kg-day

C#C[C@]1(O)CC[C@H]2[C@@H]3CCC4=CC(=O)CC[C@@H]4[C@H]3CC[C@@]21C [Norethindrone]
NOEL (Rattus norvegicus [2]; Hershberger, duration: 10 days, oral, gavage, Sprague-Dawley, active + negative + Negative + neither): 10 mg/kg-day
LEL (Rattus norvegicus [2]; duration: 14 days, injection, subcutaneous): 2 mg/day
LEL (Rattus norvegicus [2]; duration: 14 days, oral): 0.1 mg/day
LEL (Mus musculus [3]; duration: 3 days, oral): 0.1 mg/day

COC(=O)[C@H]1[C@H]2C[C@@H]3c4[nH]c5cc(OC)ccc5c4CCN3C[C@H]2C[C@@H](OC(=O)c2cc(OC)c(OC)c(OC)c2)[C@@H]1OC [Reserpine]
LEL (Mus musculus [3]; [13]): 3 mg/kg-day

CC(=O)[O-].CC(=O)[O-].[O]=[U+2]=[O] [Uranyl acetate]
LOAEL (Mus musculus [4]): 6.13 mg/kg-day
NOAEL (Mus musculus [4]): 3.07 mg/kg-day

ClC1C(Cl)C(Cl)C(Cl)C(Cl)C1Cl (stereo not drawn) [beta-Hexachlorocyclohexane]
NOAEL (Rattus norvegicus [5]; short-term, duration: 2 weeks, neurological): 8 mg/kg-day
LOAEL (Rattus norvegicus [5]; subchronic, duration: 13 weeks, hepatic): 0.18 mg/kg-day
LEL (Rattus norvegicus [2]; duration: 3 days, oral): 3 mg/kg-day
LEL (Mus musculus [3]; duration: 3 days, injection, intraperitoneal): 100 mg/kg-day

Clc1ccc(C(c2ccccc2Cl)C(Cl)(Cl)Cl)cc1 (stereo unspecified) [o,p'-DDT]
LEL (Rattus norvegicus [2]; duration: 0.25 days, injection, subcutaneous): 10 mg/day
LEL (Rattus norvegicus [2]; duration: 1 days, oral): 300 mg/kg-day
LEL (Rattus norvegicus [2]; duration: 2 days, injection, intraperitoneal): 4 mg
LEL (Rattus norvegicus [2]; duration: 2 days, injection, subcutaneous): 4 mg
LEL (Rattus norvegicus [2]; duration: 3 days, oral, diet): 250 ppm
LEL (Rattus norvegicus [2]; duration: 7 days, injection, intraperitoneal): 10 mg/day
LEL (Rattus norvegicus [2]; [13]): 50 mg/kg-day and 100 mg/kg-day
LEL (Rattus norvegicus [2]; duration: 7 days, oral): 50 mg/kg-day
LEL (Rattus norvegicus [2]; duration: 7 days, oral, diet): 500 ppm
LEL (Rattus norvegicus [2]; duration: 8 days, oral, diet): 500 ppm
LEL (Rattus norvegicus [2]; duration: 27 days, injection, intraperitoneal): 0.5 mg/day
LEL (Mus musculus [3]; duration: 1 days, oral): 375 mg/kg-day and 300 mg/kg-day
LEL (Mus musculus [3]; duration: 3 days, oral): 30 mg/kg-day
